The test system of series [1] is experimental coronaria insufficiency induced with vasopressin. Kind of series: Antianginal effect: vasopressin-induced experimental coronaria insufficiency, ECG wave T. The class given is in vivo. As to conditions: Rattus norvegicus; rats, iv., 2 minutes prior to vasopressin. Here is the method: Male rats of 180-220 g body weight were narcotised with chloralese-urethane (70/700 mg/kg ip.). The ECG was registered with needle electrodes in standard II leading. The experimental coronaria insufficiency was induced with vasopressin (4 NE/kg i.v.). The height of wave T in ECG was measured before and after the administration of vasopressin in both the control and treated groups. Test compounds were administered intravenously 2 minutes prior to the treatment with vasopressin.

The nature of the next series: in vivo. The settings on record: mouse, po. As for the experimental part:
White mice belonging to the CFLP strain (body weight 18-22 g; both male and female) are used, 10 animals for each dose. The test compound is administered orally in a volume of 20 ml/kg. […] The mice are kept in a plastic cage at room temperature. The animals get tap water and standard mouse fodder ad libitum.

Series [2] has as its system carrageen - induced oedema. Kind of series: Inhibition of carrageen-induced oedema on rats. The format is in vivo. As to conditions: for ED30: Rattus norvegicus, po, read-out: ID30 (dose resulting in an inhibition of 30%); for Therapeutical index: Table III, LD50 and ID30. Here is the method: The antiinflammatory effect of the novel compounds of the invention was investigated on rats weighing 150 to 180 g. 0.1 ml of a 1 per cent carrageen suspension was injected subcutaneously into the plantar region of one of the hind paws. Rats were fasted for 12 hours and received drinking water ad libitum. One hour before treatment with the test compound animals were hydrated orally with 30 ml/kg of tap water. The test compounds or the vehicle were administered p.o. in a volume of 10 ml/kg, then two hours later carrageen was applied. The volume of the treated paw was measured by mercury-plethysmometer before and 3 hours after injection in such a way that displacement of the liquid arising from the volume alteration was indicated on a millimeter scale. The volumes of the treated paws were compared with those of the control group.

The test system of another series is Hexobarbital narcosis. Kind of series: Hexobarbital narcosis on mice. The format is in vivo. The settings on record: for ED50: Mus musculus, po, mice, p.o., 1 hour before Hexobarbital 40 mg/kg i.v., sleeping time more than 2.5 times longer than control; for Therapeutical index: Table IV, hexobarbital narcosis on mice. Here is the method:
Groups consisting of 6 mice are used for each dose. The animals are treated orally with the test compound, whereby sleeping is induced 1 hour later by administering a 40 mg/kg i.v. dose of Hexobarbital both to the test and control groups.
ED50 values are calculated from the thus-transformed data.

[3] abbreviates: rats, p.o., two hours before carrageen, paw volume 3 hours after injection.

Each structure is given as a SMILES string. Read-outs that look alike come from different tables or passages of the source.

As to `CC(Cc1ccccc1)NCCC(c1ccccc1)c1ccccc1` (stereo not drawn) [Prenylamine, reference compound], the ED50 in series [1] worked out at 6.5 mg/kg.
In the series “in vivo”, `CCOC(=O)C1=C(C)N=C2SCCCN2C1c1c(F)cccc1Cl` (stereo not drawn) [Example 2, Ethyl-[6-(2-fluoro-6-chlorophenyl)-8-methyl-3,4-dihydro-2H,6H-pyrimido[2,1-b][1,3]thiazine-7-carboxylate]] registered an LD50 at 336 h of 170 mg/kg.
Compound `COC(=O)C1=C(C)N=C2SCCCN2C1C` (stereo not drawn) [Example 14, Methyl-(6,8-dimethyl-3,4-dihydro-2H,6H-pyrimido-[2,1-b][1,3]thiazine-7-carboxylate)] showed an LD50 at 336 h in “in vivo” of 400 mg/kg. Also, the ED30 in series [2] (setting [3]) stood at 10 mg/kg. Besides, the Therapeutical index in series [2] worked out at 40.
With `CC(=O)Oc1ccccc1C(=O)O` [Acetylsalicylic acid, reference compound], the ED30 in series [2] (3 h) worked out at 200 mg/kg. The Therapeutical index in series [2] turned out to be 6.8.
As to `CCOC(=O)C1=C(c2ccccc2)N=C2SCCCN2C1c1c(F)cccc1Cl` (stereo not drawn) [Example 12], in “in vivo”, the LD50 at 336 h is above 1000 mg/kg.
In the series on Hexobarbital narcosis, `CC1=C(C(=O)Nc2ccccc2)C(c2c(F)cccc2Cl)N2CCCSC2=N1` (stereo not drawn) [Example 6, 6-(2-Fluoro-6-chlorophenyl)-8-methyl-3,4-dihydro-2H,6H-pyrimido[2,1-b][1,3]thiazine-7-carboxylic anilide] registered an ED50 of 25 mg/kg and a Therapeutical index of 40.0. This compound gave an LD50 at 336 h in the series “in vivo” above 1000 mg/kg.
In turn, `CCOC(=O)C1=C(c2ccccc2)N=C2SCCCN2C1c1ccc(OC)cc1` (stereo not drawn) [Example 19, Ethyl-[8-phenyl-6-(4-methoxyphenyl)-3,4-dihydro-2H,6H-pyrimido[2,1-b][1,3]thiazine-7-carboxylate]] gave an ED50 in series [1] of 1.45 mg/kg.
In the series with Hexobarbital narcosis, `CCCC(C)(COC(N)=O)COC(N)=O` [Meprobamate, reference compound] returned an ED50 of 260 mg/kg and a Therapeutical index of 4.2.
In the series with Hexobarbital narcosis, `COC(=O)C1=C(C)N=C2SCC(C)CN2C1c1cccc([N+](=O)[O-])c1` (stereo not drawn) [Example 10] showed an ED50 of 39 mg/kg and a Therapeutical index of 25.6. In addition, the LD50 at 336 h in “in vivo” is above 1000 mg/kg.
The compound `CCOC(=O)C1=C(C)N=C2SCCCN2C1c1ccc(Cl)c(Cl)c1` (stereo not drawn) [Example 3, Ethyl-[6-(3,4-dichlorophenyl)-8-methyl-3,4-dihydro-2H,6H-pyrimido[2,1-b][1,3]thiazine-7-carboxylate]] returned an LD50 at 336 h in “in vivo” of 1000 mg/kg.
In the case of `COC(=O)C1=C(C)N=C2SCCCN2C1c1ccc(OC)cc1` (stereo not drawn) [Example 15, Methyl-[8-methyl-6-(4-methoxyphenyl)-3,4-dihydro-2H,6H-pyrimido[2,1-b][1,3]thiazine-7-carboxylate]], in “in vivo”, the LD50 at 336 h was above 1000 mg/kg. Further, in series [2] (setting [3]), the ED30 was found to be 70 mg/kg. The Therapeutical index in series [2] is recorded as above 14.3.
`COC(=O)C1=C(C)N=C2SCCCN2C1c1ccc(Cl)c(Cl)c1` (stereo not drawn) [Example 16, Methyl-[6-(3,4-dichlorophenyl)-8-methyl-3,4-dihydro-2H,6H-pyrimido[2,1-b][1,3]thiazine-7-carboxylate]] registered an ED50 in series [1] of around 0.81 mg/kg. In “in vivo”, this compound came in with an LD50 at 336 h of 1000 mg/kg. For the same compound, the ED30 in series [2] (setting [3]) stood at 120 mg/kg. This compound also registered a Therapeutical index in series [2] of 8.3.
The compound `COC(=O)C1=C(C)N=C2SCC(C)CN2C1c1ccc(Cl)c([N+](=O)[O-])c1` (stereo not drawn) [Example 9] registered an LD50 at 336 h in “in vivo” above 1000 mg/kg.
For the compound `COC(=O)C1=C(C)N=C2SCCCN2C1c1ccc(Cl)c([N+](=O)[O-])c1` (stereo not drawn) [Example 8], the ED50 in series [1] came out at 1.21 mg/kg. The compound also came in with an LD50 at 336 h in “in vivo” of 700 mg/kg.
Regarding `CCOC(=O)C1=C(C)N=C2SCCCN2C1c1ccccc1` (stereo not drawn) [Example 1, Ethyl-(6-phenyl-8-methyl-3,4-dihydro-2H,6H-pyrimido-[2,1-b][1,3]thiazine-7-carboxylate)], in “in vivo”, the LD50 at 336 h came out at 580 mg/kg.
In the case of `CCOC(=O)C1=C(C)N=C2SCCCN2C1c1ccc(N(C)C)cc1` (stereo not drawn) [Example 22, Ethyl-[6-(4-dimethylaminophenyl)-8-methyl-3,4-dihydro-2H,6H-pyrimido[2,1-b][1,3]thiazine-7-carboxylate]], in the series “in vivo”, the LD50 at 336 h was 700 mg/kg. Besides, the ED30 in series [2] (setting [3]) was found to be 10 mg/kg. This compound also came in with a Therapeutical index in series [2] of 70.
As for `CCCCC1C(=O)N(c2ccccc2)N(c2ccccc2)C1=O` [Phenylbutazone, reference compound], the ED30 in series [2] (setting [3]) came out at 40 mg/kg.
Consider `COc1ccc2c(c1)c(CC(=O)O)c(C)n2C(=O)c1ccc(Cl)cc1` [Indomethacin, reference compound], for which the ED30 in series [2] (3 h) stood at 3 mg/kg. The compound also came in with a Therapeutical index in series [2] of 7.3.
Regarding `CC(=O)Nc1ccc(O)cc1` [Paracetamol, reference compound], in “in vivo”, the LD50 at 336 h was found to be 1180 mg/kg. Besides, the ED30 in series [2] (setting [3]) was found to be 200 mg/kg. Also, the Therapeutical index in series [2] was found to be 5.9.
On the same counts, the results for `COC(=O)C1=C(C)N=C2SCCCN2C1c1ccccc1OC` (stereo not drawn) [Example 25, Methyl-[8-methyl-6-(2-methoxyphenyl)-3,4-dihydro-2H,6H-pyrimido[2,1-b][1,3]thiazine-7-carboxylate]] are 100 to 500 mg/kg, 10 mg/kg and 10-50.
`CC1=C(C(=O)Nc2ccccc2)C(c2ccccc2)N2CCCSC2=N1` (stereo not drawn) [Example 5, 6-Phenyl-8-methyl-3,4-dihydro-2H,6H-pyrimido[2,1-b][1,3]thiazine-7-carboxylic anilide] displayed an LD50 at 336 h in “in vivo” of 700 mg/kg.
Take `COC(=O)C1=C(C)N=C2SCCCN2C1c1cc(OC)c(OC)c(OC)c1` (stereo not drawn) [Example 18, Methyl-[8-methyl-6-(3,4,5-trimethoxyphenyl)-3,4-dihydro-2H,6H-pyrimido[2,1-b][1,3]thiazine-7-carboxylate]]: the LD50 at 336 h in “in vivo” was above 1000 mg/kg. For the same compound, the ED30 in series [2] (setting [3]) was found to be 110 mg/kg. The compound also displayed a Therapeutical index in series [2] above 9.1.
In “in vivo”, `COC(=O)C1=C(C)N=C2SCCCN2C1c1cccc([N+](=O)[O-])c1` (stereo not drawn) [Example 4, Methyl-[6-(3-nitrophenyl)-8-methyl-3,4-dihydro-2H,6H-pyrimido[2,1-b][1,3]thiazine-7-carboxylate]] registered an LD50 at 336 h of 370 mg/kg.
In the series on Hexobarbital narcosis, `CCOC(=O)C1=C(c2ccccc2)N=C2SCCCN2C1c1ccc([N+](=O)[O-])cc1` (stereo not drawn) [Example 13, Ethyl-[8-phenyl-6-(4-nitrophenyl)-3,4-dihydro-2H,6H-pyrimido[2,1-b][1,3]thiazine-7-carboxylate]] returned an ED50 of around 200 mg/kg and a Therapeutical index of 5.0. The compound also gave an LD50 at 336 h in the series “in vivo” of 1000 mg/kg.
In series [1], `CCOC(=O)C1=C(C)N=C2SCCCN2C1c1ccc(OC)cc1` (stereo not drawn) [Example 7, Ethyl-[8-methyl-6-(4-methoxyphenyl)-3,4-dihydro2H,6H-pyrimido[2,1-b][1,3]thiazine-7-carboxylate]] showed an ED50 of 1.87 mg/kg. In addition, the LD50 at 336 h in “in vivo” came to 600 mg/kg.
In the series on Hexobarbital narcosis, `CCOC(=O)C1=C(C)N=C2SCCCN2C1c1ccc(Br)cc1` (stereo not drawn) [Example 11, Ethyl-[6-(4-bromophenyl)-8-methyl-3,4-dihydro-2H,6H-pyrimido[2,1-b][1,3]thiazine-7-carboxylate]] came in with a 50% effective dose (ED50) of around 200 mg/kg and a Therapeutical index of 5.0. The LD50 at 336 h in the series “in vivo” was above 1000 mg/kg.

Source of the values: patent publication US5071849A, “Dihydropyrimidothiazine derivatives” (priority 1989, dated 1991).
